Source: paper PMC6155188 (2017)

How the values were obtained:
[1] = test system: GP1 (DNA, aptamer) GGAGGCTCTCGGGACGACGGGAGCATCATTCTGAGTGTTATGTGGATTGATACGTCTGGTCGTCCCGATGCTGCAATCGTAA; test: structure-switching fluorescence titration; conditions: 500 mM NaCl, 10 mM MgCl2, 5 mM KCl; 20 mM HEPES pH 7.4, room temperature; dabcyl-cDNA displaced; ligand stocks up to 200 mM
[2] = test system: GP2 (DNA, aptamer) GGAGGCTCTCGGGACGACGGTGTGGCCCGTGGTGTCACTAATGAAGGGATTCATTTCAGTCGTCCCGATGCTGCAATCGTAA; test: structure-switching fluorescence titration; conditions: 500 mM NaCl, 10 mM MgCl2, 5 mM KCl; 20 mM HEPES pH 7.4, room temperature; dabcyl-cDNA displaced; ligand stocks up to 200 mM
[3] = test system: GP1 (DNA, aptamer) GGAGGCTCTCGGGACGACGGGAGCATCATTCTGAGTGTTATGTGGATTGATACGTCTGGTCGTCCCGATGCTGCAATCGTAA; test: structure-switching fluorescence titration, Kd = Kd,eff1/Kd,eff2; conditions: 500 mM NaCl, 10 mM MgCl2, 5 mM KCl; 20 mM HEPES pH 7.4, ~23 °C; dabcyl-cDNA displaced (sequence not in text); 50 nM each strand
[4] = test system: GP2 (DNA, aptamer) GGAGGCTCTCGGGACGACGGTGTGGCCCGTGGTGTCACTAATGAAGGGATTCATTTCAGTCGTCCCGATGCTGCAATCGTAA; test: as above; conditions: 500 mM NaCl, 10 mM MgCl2, 5 mM KCl; 20 mM HEPES pH 7.4, ~23 °C; dabcyl-cDNA displaced (sequence not in text); 50 nM each strand

| binding [1] | binding [2] | Kd [3] | Kd [4] | SMILES |
| --- | --- | --- | --- | --- |
| no | no | – | – | OC[C@H]1OC(O)[C@H](O)[C@@H](O)[C@@H]1O (stereo partly drawn) |
| no | no | – | – | COC(=O)C1=CO[C@@H](O)[C@@H]2C(CO)=CC[C@H]12 |
| – | – | ~ 6.1 μM | ~ 2.0 μM | COC(=O)C1=CO[C@@H](O[C@@H]2O[C@H](CO)[C@@H](O)[C@H](O)[C@H]2O)[C@@H]2C(CO)=CC[C@H]12 |
